This experiment deals with at least one muscarinic receptor, M1, M2, M3, M4. The experiment in a line: Muscarinic modulation activity (Table 3). Format: cell-based. The arrangement: key: +++: exhibited muscarinic modulation activity for at least one muscarinic receptor, M1, M2, M3, M4, at a concentration of less than 5 μM; ++: exhibited muscarinic modulation activity for at least one muscarinic receptor, M1, M2, M3, M4, at a concentration of between 30 μM and 5 μM; +: exhibited muscarinic modulation activity for at least one muscarinic receptor, M1, M2, M3, M4, at a concentration of greater than 30 μM; −: were not assayed or did not exhibit muscarinic modulation activity for at least one muscarinic receptor, M1, M2, M3, M4, at the concentration at which the assay was performed. To be noted: concentration at which modulation of at least one muscarinic receptor, M1, M2, M3, M4, was exhibited; CHO cells. A digest of the protocol:
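CHO cells expressing M1–M5 loaded with Fluo-3 AM or Calcium 3 dye plus 1 mM probenecid; FLIPR fluorescence read for 60 sec after compound addition (agonist mode) or after 15 min pre-incubation then carbachol at EC80 (inhibition mode); 0.5% DMSO final.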
As to `CCOC(=O)N1C2CCC1CC(N1CCC(c3nc(OC)cc(OC)n3)CC1)C2` (centres unmarked) [Compound 57, 3-[4-(4,6-dimethoxypyrimidin-2-yl)-1-piperidyl]-8-azabicyclo[3.2.1]octane-8-carboxylic acid ethyl ester], the “ACTIVITY (muscarinic modulation activity)” value (shortened to “ACTIVITY”) is “+++ (exhibited muscarinic modulation activity for at least one muscarinic receptor, M1, M2, M3, M4, at a concentration of less than 5 μM)”.

With `N#Cc1cccnc1N1CCN(C2CC3CCC(C3)C2)CC1` (centres unmarked) [Compound 27, 2-[4-(3-bicyclo[3.2.1]octyl)piperazin-1-yl]nicotinonitrile], the “ACTIVITY” value is reported as “+ (exhibited muscarinic modulation activity for at least one muscarinic receptor, M1, M2, M3, M4, at a concentration of greater than 30 μM)”.

For the compound `CCOC(=O)N1C2CCC1CC(N1CCN(c3ccc(C(C)=O)cn3)CC1)C2` (centres unmarked) [Compound 51, 3-[4-(5-acetyl-2-pyridyl)piperazin-1-yl]-8-azabicyclo[3.2.1]octane-8-carboxylic acid ethyl ester], the “ACTIVITY” value is on record as “+++ (exhibited muscarinic modulation activity for at least one muscarinic receptor, M1, M2, M3, M4, at a concentration of less than 5 μM)”.

Consider `C1=CC2CC1CC2CN1CCC(n2nnc3ccccc32)CC1` (centres unmarked) [Compound 37, 1-[1-(5-bicyclo[2.2.1]hept-2-enylmethyl)-4-piperidyl]-1H-benzotriazole], for which the “ACTIVITY” value is on record as “+ (exhibited muscarinic modulation activity for at least one muscarinic receptor, M1, M2, M3, M4, at a concentration of greater than 30 μM)”.

Regarding `Cc1cccnc1N1CCN(CC2CC3C=CC2C3)CC1` (centres unmarked) [Compound 20, 2-[4-(5-bicyclo[2.2.1]hept-2-enylmethyl)piperazin-1-yl]-3-methyl-pyridine], the “ACTIVITY” value is recorded as “+++ (exhibited muscarinic modulation activity for at least one muscarinic receptor, M1, M2, M3, M4, at a concentration of less than 5 μM)”.

`c1cnc(N2CCN(C3CC4CCC3C4)CC2)nc1` (centres unmarked) [Compound 71, 2-(4-norbornan-2-ylpiperazin-1-yl)pyrimidine]: the “ACTIVITY” value is “++ (exhibited muscarinic modulation activity for at least one muscarinic receptor, M1, M2, M3, M4, at a concentration of between 30 μM and 5 μM)”.

With `Cc1nc(N2CCN(CC3CC4CCC3C4)CC2)c(C#N)cc1-c1ccccc1` (centres unmarked) [Compound 73, 6-methyl-2-[4-(norbornan-2-ylmethyl)piperazin-1-yl]-5-phenyl-nicotinonitrile], the “ACTIVITY” value was “−”.

Consider “3-[4-(3-cyanopyrazin-2-yl)piperazin-1-yl]-8-azabicyclo[3.2.1]octane-8-carboxylic acid ethyl ester [Compound 45]”, for which the “ACTIVITY” value is “+ (exhibited muscarinic modulation activity for at least one muscarinic receptor, M1, M2, M3, M4, at a concentration of greater than 30 μM)”.

Regarding `N#Cc1ccc(C(F)(F)F)nc1N1CCN(C2CC3CCC2C3)CC1` (centres unmarked) [Compound 3, 2-(4-norbornan-2-ylpiperazin-1-yl)-6-(trifluoromethyl)nicotinonitrile], the “ACTIVITY” value is reported as “+ (exhibited muscarinic modulation activity for at least one muscarinic receptor, M1, M2, M3, M4, at a concentration of greater than 30 μM)”.

In the case of `c1cnc(N2CCN(C3CC4CCC3C4)CC2)cn1` (centres unmarked) [Compound 44, 2-(4-norbornan-2-ylpiperazin-1-yl)pyrazine], the “ACTIVITY” value was “++ (exhibited muscarinic modulation activity for at least one muscarinic receptor, M1, M2, M3, M4, at a concentration of between 30 μM and 5 μM)”.

For `Cc1nccnc1N1CCN(C2CC3CCC2C3)CC1` (centres unmarked) [Compound 63, 2-methyl-3-(4-norbornan-2-ylpiperazin-1-yl)-pyrazine], the “ACTIVITY” value is given as “+ (exhibited muscarinic modulation activity for at least one muscarinic receptor, M1, M2, M3, M4, at a concentration of greater than 30 μM)”.

Consider `c1ccc(N2CCN(C3CC4CCC3C4)CC2)nc1` (centres unmarked) [Compound 65, 1-norbornan-2-yl-4-(2-pyridyl)piperazine], for which the “ACTIVITY” value is “++ (exhibited muscarinic modulation activity for at least one muscarinic receptor, M1, M2, M3, M4, at a concentration of between 30 μM and 5 μM)”.

In the case of `CCOC(=O)N1C2CCC1CC(N1CCN(c3cc(C#N)ccn3)CC1)C2` (centres unmarked) [Compound 56, 3-[4-(4-cyano-2-pyridyl)piperazin-1-yl]-8-azabicyclo[3.2.1]octane-8-carboxylic acid ethyl ester], the “ACTIVITY” value is “+++ (exhibited muscarinic modulation activity for at least one muscarinic receptor, M1, M2, M3, M4, at a concentration of less than 5 μM)”.

Take `FC(F)(F)c1ccc(N2CCN(CC3CC4C=CC3C4)CC2)nc1` (centres unmarked) [Compound 47, 1-(5-bicyclo[2.2.1]hept-2-enylmethyl)-4-[5-(trifluoromethyl)-2-pyridyl]-piperazine]: the “ACTIVITY” value is reported as “+ (exhibited muscarinic modulation activity for at least one muscarinic receptor, M1, M2, M3, M4, at a concentration of greater than 30 μM)”.

Take `Clc1cccc(N2CCN(CC3CC4C=CC3C4)CC2)n1` (centres unmarked) [Compound 21, 1-(5-bicyclo[2.2.1]hept-2-enylmethyl)-4-(6-chloro-2-pyridyl)-piperazine]: the “ACTIVITY” value is listed as “−”.

For `C1=CC2CC1CC2CN1CCN(c2ccccn2)CC1` (centres unmarked) [Compound 48, 1-(5-bicyclo[2.2.1]hept-2-enylmethyl)-4-(2-pyridyl)piperazine], the “ACTIVITY” value was “++ (exhibited muscarinic modulation activity for at least one muscarinic receptor, M1, M2, M3, M4, at a concentration of between 30 μM and 5 μM)”.

Turning to `CCOC(=O)N1C2CCC1CC(N1CCN(c3nc(C(F)(F)F)ccc3C#N)CC1)C2` (centres unmarked) [Compound 24, 3-[4-[3-cyano-6-(trifluoromethyl)-2-pyridyl]piperazin-1-yl]-8-azabicyclo[3.2.1]octane-8-carboxylic acid ethyl ester], the “ACTIVITY” value is given as “+++ (exhibited muscarinic modulation activity for at least one muscarinic receptor, M1, M2, M3, M4, at a concentration of less than 5 μM)”.

Source of the values: US7820817B2, “Modulators of muscarinic receptors” (Vertex Pharmaceuticals Incorporated, priority 2004, dated 2010).
